Laboratory results from US20250002526A1, “PHARMACEUTICAL COMPOSITION HAVING ANTI-CANCER IMMUNOSTIMULATING EFFECT AND/OR IMMUNE CHECKPOINT INHIBITION POTENTIATING EFFECT” (KYUSHU UNIVERSITY, NATIONAL UNIVERSITY CORPORATION, priority 2021, published 2025).
pIC50: −log10 of the molar value. “Also recorded” adds a separate entry of the source.

Columns and labels:
E.G7-OVA-SULT cells = test: In vivo tumor growth of E.G7-OVA-SULT cells with OTI T cell transfer; design: species or system mouse; settings: activated OTI T cells i.v. day 10, cholenoic acid oral days 13, 14 and 15
Description: In T cell transfer experiment, activated OTII CD4^+ T cells (2×10^6) and OTI CD8^+ T cells (5×10^5) were intravenously injected into tumor-bearing mice (see experimental results (4)).
Cholenoic acid was suspended in 0.5% (w/v) methylcellulose 400 solution (FUJIFILM Wako Pure Chemical Corporation) at a proportion of 50 mg/ml, and a 200-μl portion (10 mg) of the suspension was orally administered to mice (see experimental results (6)). To examine the effect on the tumor infiltration of OTII cells or OTI T cells, 5 mg of cholenoic acid was orally administered three times at intervals of 6 hours in 2 days before the assay.
CD4^+ T cells or CD8^+ T cells were magnetically selected from the spleen and peripheral lymph nodes of OTII and OTI TCR transgenic mice with Dynabeads mouse CD4 (Invitrogen), and then treated with DETACHaBEAD™ mouse CD4 (Invitrogen) or separated with a CD8a^+ T Cell Isolation Kit (Miltenyi Biotec). […]
The growth of tumors was monitored by measuring the vertical diameters of each tumor with a caliper twice a week and calculating the tumor volumes from the following expression.

[1] = target: T1, recombinant human SULT2B1b protein (Homo sapiens, UniProt O00204); test: SULT assay (in vitro SULT2B1b enzymatic activity measurement); type: biochemical
T1 sequence (O00204 1-365): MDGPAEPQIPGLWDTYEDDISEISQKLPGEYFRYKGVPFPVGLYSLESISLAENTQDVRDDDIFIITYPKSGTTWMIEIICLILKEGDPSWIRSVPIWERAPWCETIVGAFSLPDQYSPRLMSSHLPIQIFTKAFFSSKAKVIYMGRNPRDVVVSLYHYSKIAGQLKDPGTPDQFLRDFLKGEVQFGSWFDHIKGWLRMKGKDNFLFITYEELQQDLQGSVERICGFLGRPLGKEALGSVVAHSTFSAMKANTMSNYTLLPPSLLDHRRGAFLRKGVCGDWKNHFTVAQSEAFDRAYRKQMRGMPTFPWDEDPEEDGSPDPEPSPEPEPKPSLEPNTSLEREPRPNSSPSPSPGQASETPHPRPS
Description: For screening for a SULT2B1b inhibitor, enzymatic activity measurement for SULT2B1b was carried out by a method described in a previous report (NPL 2) with slight modifications.
The reaction solution (50 μl) was composed of 1 to 5 μg of recombinant human SULT2B1b protein, 10 μM [^3H]cholesterol (approximately 4,000 dpm/pmol), 10 mM Tris-HCl (pH 7.5, containing 5 mM MgCl2) containing 0.1 mM 3′-phosphoadenosine 5′-phosphosulfate (PAPS), 0.2 mM 2-hydroxypropyl-β-cyclodextrin, and 5% (v/v) ethanol. Recombinant human SULT2B1b protein was pre-incubated with 1 μl of a test compound (final concentration: 40 or 200 μM) or DMSO (control) at room temperature for 15 minutes, 2 mM PAPS (2.5 μl) was then added to initiate reaction, the resultant was reacted at 37° C. for 15 minutes, and 0.8 ml of ethanol was added to terminate the reaction.
The solution after the reaction was subjected to thin-layer chromatography (TLC) for separation, and then to a liquid scintillation counter to quantify radiolabeled CS.
From the percentage to the amount ([…]) of radiolabeled CS generated through reaction in the absence of the test compound (DMSO) (control), the SULT2B1b activity (% activity) of SULT2B1b protein in the presence of the test compound was evaluated, and the effect of the test compound to inhibit SULT2B1b-mediated CS production (CS production inhibitory effect) was evaluated.
In enzyme assay, SULT assay was performed with use of cholenoic acid as a compound to be tested at different cholesterol and PAPS concentrations (wherein 0.5 to 1 μg of recombinant human SULT2B1b protein was used, the preincubation time and reaction time were each 10 minutes), and the results were fitted to the Michaelis-Menten equation by using Prism 9 (GraphPad Software, Inc.) to perform enzyme kinetic analysis for the inhibition by cholenoic acid.
SULT assay was performed for the compounds as test compounds by the method described in (14) of “II. Experimental procedure” in Experiment Example 1 to evaluate the SULT2B1b inhibitory effects of the compounds.

E0771-SULT cells = test: Trans-cancer migration assay (CCL21-induced T-cell migration); type: cell-based, mouse; settings: E0771-SULT cells pretreated with cholenoic acid (5 μM)
From the text: FIG. 10 is a series of diagrams showing experimental results (6) in Experiment Example 1 (identification of cholenoic acid as a SULT2B1b inhibitor that promotes anti-tumor immunity). […] The data were acquired from two independent experiments, and expressed as mean±SD. * P<0.05; ** P<0.01 (one-way ANOVA followed by Dunnett's post-hoc test). The level of CCL21-induced T-cell migration in E0771-MOCK cells (CCL21+, SULT−) was used as a control for comparison. FIGS. 10B and 10C show results of enzyme kinetic analysis for SULT2B1b inhibition by cholenoic acid (3-OH-5-Chln). SULT2B1b protein (0.3 or 0.6 μM) was preincubated with cholenoic acid (20 or 40 μM) or a vehicle (2% DMSO), and reacted with cholesterol at different concentrations in the presence of 100 μM PAPS (FIG. 10B) or reacted with PAPS at different concentrations in the presence of 10 μM cholesterol (FIG. 10C). The data were fitted to the Michaelis-Menten equation (the left figures in FIGS. 10B and 10C), and their inhibition modes were analyzed with Lineweaver-Burk plots (right figures).
In carrying out the migration assay, T cells were loaded on E0771-MOCK cells (expressing only a vector; SULT−) or E0771-SULT cells (SULT+) seeded on Matrigel in an upper chamber.

C[C@H](CCC(=O)O)[C@H]1CC[C@H]2[C@@H]3CC=C4C[C@@H](O)CC[C@]4(C)[C@H]3CC[C@]12C [Compound 1, (R)-4-((3S,8S,9S,10R,13R,14S,17R)-3-hydroxy-10,13-dimethyl-2,3,4,7,8,9,10,11,12,13,14,15,16,17-tetradecahydro-1H-cyclopenta[a]phenanthren-17-yl)pentanoic acid]
growth of E.G7-OVA-SULT cells / anti-tumor immunity of OTI T cells (E.G7-OVA-SULT cells): recovery of the effect of OTII cell or OTI T cell transplantation; also recorded: the growth of E.G7-OVA-SULT cells was suppressed | inhibition mode with respect to PAPS (sulfate donor) ([1]; Michaelis-Menten / Lineweaver-Burk, 10 μM cholesterol): uncompetitively | inhibition mode with respect to cholesterol (substrate) ([1]; Michaelis-Menten / Lineweaver-Burk, 100 μM PAPS): non-competitively | pIC50 ([1]; recombinant human SULT2B1b, read-out: IC50 value (enzyme assay)): 4.61 | activity at 200 µM ([1]; test compound 200 μM, relative to DMSO control (100%), read-out: in vitro SULT2B1b assay % activity at 200 μM): 20.6% | CCL21-induced T-cell migration suppressed by E0771-SULT cells (E0771-SULT cells): suppression effect was not observed; also recorded: recovery
